Laboratory results: patent US11624022B2, “Preparation method for the plant-based nano corrosion inhibition bactericide for oilfield and application thereof” (Southwest Petroleum University, priority 2021, dated 2023)

Assays:
[1] = test system: sulfate reducing bacteria (SRB); test: Sterilization performance test (serial dilution counting of SRB); format: cell-based; conditions: 60 mg/L, counted 24 hours later; for Number of SRB: no bactericide 2500000
Protocol: Before the test, all devices and glass containers were sterilized for 20 min at 121° C. The SRB strain was isolated from the formation water of an injection well in a shale gas field in China. SRB liquid medium was prepared according to NACE TMO194-94 standard.
The composition of the medium is as follows: Ig yeast powder, 0.1 g ascorbic acid, 0.2 g MgSO4·7H2O, 0.01 g K2HPO4, 10 g NaCl, 0.2 g (NH4)2Fe(SO4)2·6H2O, 4 mL sodium lactate, and 1000 mL deionized water. A portable pressure steam disinfection pot was used to sterilize the bacteria in the prepared medium. In the sterilization process, the temperature was kept at 120° C. for 15 min. It was then deoxidized with N2 for 2 h. 10% SRB was inoculated into the medium and placed in an incubator at 37° C. After 5 days, the number of SRB reached the peak value and remained stable.
Different bactericides were added into the cultured bacteria solution of 200 mL and counted 24 hours later.
Serial dilution method (triple repetition) was taken for the counting of SRB. Totally 10 dilution levels were provided. At each dilution level, there were three identical vials filled with 9 mL SRB medium. The measured sample of 1 mL was injected into a vial at the Level 0 and then shaken up. The 1 mL solution from the vial at the Level 0 was injected into a vial at the Level 1. The syringe for sampling the liquid each time was disposable to avoid affecting the final results. Similarly, the sample was diluted until the dilution reached Level 9. All vials were incubated at 35° C. for 14 days at a constant temperature.
The growth index should be determined according to the following principles: three dilution levels were selected from the dilution level at which negative vials appeared, and the number of positive vials was counted for each dilution level to obtain the index (When all the vials in a certain grade are negative, the previous grade is counted). The growth index (summarized according to 5.6.5.3 in SY/T 5329-1994) is obtained by multiplying the dilution factor 10^n of water sample (n is the number of dilutions before the index position). Check the corresponding bacteria count table and substitute the bacterial count detected by the index to get the content of this kind of bacteria in the water sample (Nr./mL).
The test results are shown in Table 1, in which the vials 1 to 10 are filled with 9 mL SRB medium (10^7). The dilution levels are numbered from Lev. 0 to Lev. 9. Take the measured sample of 1 mL into the Vial 1, indicating Level 0; take a new syringe and take 1 mL from Vial 1 to Vial 2, indicating Level 1; take a new syringe and take 1 mL from Vial 2 to Vial 3, indicating […]; the rest can be done in the same manner until 1 mL is taken from Vial 9 to Vial 10, indicating Level 9. “+” represents positive vial, and “−” represents negative vial.

[2] = Corrosion inhibition performance test (static uniform corrosion, SY/T 5273-2014); conditions: 60 mg/L; N80 steel, corrosive solution pH 6.5, 37° C., 14 days
Protocol: The corrosive solution of 1 L was prepared, the pH was adjusted to 6.5, and the temperature was 37° C. at a normal pressure. The N80 steel specimens were processed with specifications of 30*15*3 and placed in corrosive solution. Three specimens were placed in each vial and different corrosion inhibitors were added respectively. The experiment lasted for 14 days.
After the test, the specimens were cleaned with stripping solution (100 ml hydrochloric acid+10 g hexamethylenetetramine+900 mL deionized water), then dehydrated by ethanol and blow-dried with N2. The determination method for static uniform corrosion inhibition rate was evaluated with referring to the Performance Index and Evaluation Method of Corrosion Inhibitor for Oilfield Produced Water Treatment (SY/T 5273-2014), the oil and gas industry standard of the People's Republic of China. The formulas of uniform corrosion rate and corrosion inhibition efficiency are as follows:
The corrosion inhibition test results are shown in Table 3, in which the corrosion inhibitors 1, 2 and 3 commonly used in oilfields are respectively the lauric acid imidazoline, abietic acid imidazoline and tetradecyl trimethyl ammonium bromide.

O=CCCCC=O [Glutaraldehyde]
Growth index [1]: 200
Sterilization rate [1]: 64%
Number of SRB [1]: 900000 Nr./mL

CCCCCCCCCCCCCC[N+](C)(C)C.[Br-] [Tetradecyl trimethyl ammonium bromide, tetradecyl trimethyl ammonium bromide]
Corrosion inhibition efficiency [2]: 90.9%

CCCCCCCCCCCC[N+](C)(C)Cc1ccccc1.[Cl-] [Traditional bactericide 1227]
Growth index [1]: 210
Sterilization rate [1]: 40%
Number of SRB [1]: 1500000 Nr./mL

abietic acid imidazoline
Corrosion inhibition efficiency [2]: 93.9%

lauric acid imidazoline
Corrosion inhibition efficiency [2]: 93.3%
